PubChem BioAssay AID180 (DTP/NCI, 2004)
Values joined by “and” are separate entries in the source; they are usually repeats but may differ in a detail not shown here. Identical values can stand only once.

Tested on: BDF1 mice, Adenocarcinoma 755 s.c., tumor weight T/C
Test: NCI In Vivo Anticancer Drug Screen. Data for tumor model Adenocarcinoma 755 (subcutaneous) in B6D2F1 (BDF1) mice
Conditions: endpoint: mean tumor weight, higher = larger tumour
Experimental: The antitumor activity of compounds was measured in mice bearing transplantable tumors. Survival or tumor size were measured and the results are expressed as the measurement made in the treated group (T) divided by the measurement made in the vehicle treated control group (C). The tumor model used in this assay is Adenocarcinoma 755 (subcutaneous) in B6D2F1 (BDF1) mice

## CC(=O)[C@@]1(O)CC[C@H]2[C@@H]3C[C@H](C)C4=CC(=O)C=C[C@]4(C)[C@@]3(F)[C@@H](O)C[C@@]21C
dose: 0.37 mg/kg/injection, schedule: Q#A X022 (sc), vehicle: steriod suspending solution
  T/C: 55 % of control
dose: 0.5 mg/kg/injection, schedule: Q01DX011 (sc), vehicle: steriod suspending solution
  T/C: 40 % of control
dose: 0.75 mg/kg/injection, schedule: Q#A X022 (sc), vehicle: steriod suspending solution
  T/C: 67 % of control
dose: 1.0 mg/kg/injection, schedule: Q03DX004 (sc), vehicle: steriod suspending solution
  T/C: 62 % of control
dose: 1.5 mg/kg/injection, schedule: Q#A X022 (sc), vehicle: steriod suspending solution
  T/C: 44 % of control
dose: 1.6 mg/kg/injection, schedule: Q01DX011 (sc), vehicle: steriod suspending solution
  T/C: 57 % of control
dose: 2.0 mg/kg/injection, schedule: Q03DX004 (sc), vehicle: steriod suspending solution
  T/C: 44 % of control
dose: 3.0 mg/kg/injection, schedule: Q01DX011 (im), vehicle: steriod suspending solution
  T/C: 43 % of control
dose: 3.0 mg/kg/injection, schedule: Q01DX011 (sc), vehicle: steriod suspending solution
  T/C: 47 % of control and 51 % of control
dose: 3.0 mg/kg/injection, schedule: Q#A X022 (sc), vehicle: steriod suspending solution
  T/C: 39 % of control
dose: 3.2 mg/kg/injection, schedule: Q01DX011 (sc), vehicle: steriod suspending solution
  T/C: 31 % of control
dose: 4.0 mg/kg/injection, schedule: Q03DX004 (sc), vehicle: steriod suspending solution
  T/C: 72 % of control
dose: 6.0 mg/kg/injection, schedule: Q01DX011 (im), vehicle: steriod suspending solution
  T/C: 38 % of control
dose: 6.0 mg/kg/injection, schedule: Q01DX011 (sc), vehicle: steriod suspending solution
  T/C: 16 % of control and 25 % of control
dose: 6.3 mg/kg/injection, schedule: Q01DX011 (sc), vehicle: steriod suspending solution
  T/C: 49 % of control
dose: 8.0 mg/kg/injection, schedule: Q03DX004 (sc), vehicle: steriod suspending solution
  T/C: 52 % of control
dose: 9.0 mg/kg/injection, schedule: Q03DX004 (sc), vehicle: steriod suspending solution
  T/C: 35 % of control
dose: 12.0 mg/kg/injection, schedule: Q01DX011 (sc), vehicle: steriod suspending solution
  T/C: 16 % of control
dose: 12.5 mg/kg/injection, schedule: Q01DX006 (iv), vehicle: steriod suspending solution
  T/C: 45 % of control
dose: 12.5 mg/kg/injection, schedule: Q01DX011 (im), vehicle: steriod suspending solution
  T/C: 21 % of control
dose: 12.5 mg/kg/injection, schedule: Q01DX011 (ip), vehicle: steriod suspending solution
  T/C: 48 % of control
dose: 12.5 mg/kg/injection, schedule: Q01DX011 (sc), vehicle: steriod suspending solution
  T/C: 19 % of control and 39 % of control
dose: 18.0 mg/kg/injection, schedule: Q03DX004 (sc), vehicle: steriod suspending solution
  T/C: 35 % of control
dose: 22.0 mg/kg/injection, schedule: Q## X002 (sc), vehicle: steriod suspending solution
  T/C: 55 % of control
dose: 24.0 mg/kg/injection, schedule: Q01DX011 (sc), vehicle: steriod suspending solution
  T/C: 20 % of control
dose: 25.0 mg/kg/injection, schedule: Q01DX006 (iv), vehicle: steriod suspending solution
  T/C: 30 % of control
dose: 25.0 mg/kg/injection, schedule: Q01DX011 (im), vehicle: steriod suspending solution
  T/C: 12 % of control
dose: 25.0 mg/kg/injection, schedule: Q01DX011 (ip), vehicle: steriod suspending solution
  T/C: 42 % of control
dose: 25.0 mg/kg/injection, schedule: Q01DX011 (sc), vehicle: steriod suspending solution
  T/C: 12 % of control
dose: 27.5 mg/kg/injection, schedule: Q01DX011 (sc), vehicle: steriod suspending solution
  T/C: 36 % of control and 54 % of control
dose: 37.0 mg/kg/injection, schedule: Q03DX004 (sc), vehicle: steriod suspending solution
  T/C: 36 % of control
dose: 43.0 mg/kg/injection, schedule: Q## X002 (sc), vehicle: steriod suspending solution
  T/C: 30 % of control
dose: 50.0 mg/kg/injection, schedule: Q01DX006 (iv), vehicle: steriod suspending solution
  T/C: 25 % of control
dose: 50.0 mg/kg/injection, schedule: Q01DX011 (im), vehicle: steriod suspending solution
  T/C: 14 % of control
dose: 50.0 mg/kg/injection, schedule: Q01DX011 (ip), vehicle: steriod suspending solution
  T/C: 34 % of control
dose: 50.0 mg/kg/injection, schedule: Q01DX011 (oral), vehicle: steriod suspending solution
  T/C: 47 % of control
dose: 50.0 mg/kg/injection, schedule: Q01DX011 (sc), vehicle: steriod suspending solution
  T/C: 11 % of control
dose: 55.0 mg/kg/injection, schedule: Q01DX011 (sc), vehicle: steriod suspending solution
  T/C: 28 % of control
dose: 75.0 mg/kg/injection, schedule: Q03DX004 (sc), vehicle: steriod suspending solution
  T/C: 18 % of control
dose: 87.0 mg/kg/injection, schedule: Q01DX001 (sc), vehicle: steriod suspending solution
  T/C: 53 % of control and 66 % of control
dose: 87.0 mg/kg/injection, schedule: Q07DX002 (sc), vehicle: steriod suspending solution
  T/C: 37 % of control
dose: 100.0 mg/kg/injection, schedule: Q01DX006 (iv), vehicle: steriod suspending solution
  T/C: 19 % of control
dose: 100.0 mg/kg/injection, schedule: Q01DX011 (im), vehicle: steriod suspending solution
  T/C: 7 % of control
dose: 100.0 mg/kg/injection, schedule: Q01DX011 (oral), vehicle: steriod suspending solution
  T/C: 59 % of control
dose: 100.0 mg/kg/injection, schedule: Q01DX011 (sc), vehicle: steriod suspending solution
  T/C: 13 % of control
dose: 150.0 mg/kg/injection, schedule: Q03DX004 (sc), vehicle: steriod suspending solution
  T/C: 25 % of control
dose: 175.0 mg/kg/injection, schedule: Q01DX001 (sc), vehicle: steriod suspending solution
  T/C: 38 % of control and 43 % of control
dose: 175.0 mg/kg/injection, schedule: Q07DX002 (sc), vehicle: steriod suspending solution
  T/C: 27 % of control
dose: 200.0 mg/kg/injection, schedule: Q01DX006 (iv), vehicle: steriod suspending solution
  T/C: 14 % of control
dose: 200.0 mg/kg/injection, schedule: Q01DX011 (im), vehicle: steriod suspending solution
  T/C: 8 % of control
dose: 200.0 mg/kg/injection, schedule: Q01DX011 (oral), vehicle: steriod suspending solution
  T/C: 42 % of control
dose: 200.0 mg/kg/injection, schedule: Q01DX011 (sc), vehicle: steriod suspending solution
  T/C: 3 % of control
dose: 300.0 mg/kg/injection, schedule: Q01DX011 (sc), vehicle: steriod suspending solution
  T/C: 7 % of control
dose: 300.0 mg/kg/injection, schedule: Q03DX004 (sc), vehicle: steriod suspending solution
  T/C: 15 % of control
dose: 350.0 mg/kg/injection, schedule: Q01DX001 (sc), vehicle: steriod suspending solution
  T/C: 28 % of control and 47 % of control
dose: 350.0 mg/kg/injection, schedule: Q07DX002 (sc), vehicle: steriod suspending solution
  T/C: 19 % of control
dose: 400.0 mg/kg/injection, schedule: Q01DX011 (oral), vehicle: steriod suspending solution
  T/C: 34 % of control
dose: 400.0 mg/kg/injection, schedule: Q03DX004 (sc), vehicle: steriod suspending solution
  T/C: 19 % of control
dose: 500.0 mg/kg/injection, schedule: Q01DX011 (oral), vehicle: steriod suspending solution
  T/C: 37 % of control
dose: 600.0 mg/kg/injection, schedule: Q01DX011 (oral), vehicle: steriod suspending solution
  T/C: 38 % of control
dose: 600.0 mg/kg/injection, schedule: Q03DX004 (sc), vehicle: steriod suspending solution
  T/C: 15 % of control
dose: 700.0 mg/kg/injection, schedule: Q01DX001 (sc), vehicle: steriod suspending solution
  T/C: 26 % of control and 43 % of control
dose: 700.0 mg/kg/injection, schedule: Q07DX002 (sc), vehicle: steriod suspending solution
  T/C: 19 % of control
dose: 1000.0 mg/kg/injection, schedule: Q01DX001 (sc), vehicle: steriod suspending solution
  T/C: 36 % of control and 45 % of control
dose: 1000.0 mg/kg/injection, schedule: Q## X002 (sc), vehicle: steriod suspending solution
  T/C: 22 % of control
dose: 1500.0 mg/kg/injection, schedule: Q01DX001 (sc), vehicle: steriod suspending solution
  T/C: 24 % of control and 40 % of control
dose: 1500.0 mg/kg/injection, schedule: Q## X002 (sc), vehicle: steriod suspending solution
  T/C: 24 % of control

## CN(C)S(=O)(=O)c1ncnc2nc[nH]c12
dose: 32.0 mg/kg/injection, schedule: Q01DX011 (ip), vehicle: other
  T/C: 26 % of control
dose: 128.0 mg/kg/injection, schedule: Q01DX011 (ip), vehicle: other
  T/C: 7 % of control
dose: 256.0 mg/kg/injection, schedule: Q01DX011 (ip), vehicle: other
  T/C: 6 % of control
